Measured values: patent US7985745B2, “Method for pain treatment” (Abbott Laboratories, priority 2006, dated 2011)

System: osteoarthritis pain
Experiment: MIA-induced knee joint osteoarthritis model, hind limb grip force
Format: in vivo, rat
Conditions: grip force 20 days after MIA, % return to normalcy vs naïve group
Description: Unilateral knee joint osteoarthritis was induced in rats by a single intra-articular (i.a.) injection of sodium monoiodoacetate (MIA) (Sigma-Aldrich, St. Louis, Mo.) (3 mg in 50 ul sterile isotonic saline) into the right knee joint cavity under light (1-3%) isoflurane anesthesia.
Pain behavior was assessed by measurement of hind limb grip force (GF) in adult osteoarthritic rats. Following the unilateral injection of MIA (male Sprague Dawley, 325-350 g, tested at 20 days following MIA injection), a behavioral measure of activity-induced pain was carried out. Measurements of the peak hind limb grip force were conducted by recording the maximum compressive force (CFmax), in grams of force, exerted on a hind limb strain gauge setup, in a commercially available grip force measurement system (Columbus Instruments, Columbus, Ohio).
During testing, each rat was gently restrained by grasping it around its rib cage and then allowed to grasp the wire mesh frame attached to the strain gauge. The experimenter then moved the animal in a rostral-to-caudal direction until the grip was broken. Each rat was sequentially tested twice at approximately 2-3 min interval to obtain a raw mean grip force (CFmax). This raw mean grip force data was in turn converted to a maximum hindlimb cumulative compressive force (CFmax), as the grams of force/kg of body weight, for each animal.
For evaluating the compound effects, the hind limb grip force was conducted 20 days following the intra-articular injection of MIA. A group of age-matched naïve (not injected with MIA) animals was added as a comparator to the drug-dosed groups. The vehicle control response for each group of MIA-treated animals was defined as the 0% response (0% effect), whereas the naïve control group was defined as the normal response and as 100% effect. The % effects for each dose group was expressed as % return of response to normalcy, compared to the naïve group. That is, the % effect=(Treatment CFmax−Vehicle CFmax)/[…]]×100). All experiments evaluating drug effects in this model were conducted in a randomized blinded fashion.

SMILES: CN1CCN(C(=O)c2cc3cc(Cl)ccc3[nH]2)CC1 [Example 3, reference compound]
- % Effect (100 micromole/kg i.p.): 21%
- % Effect (250 micromole/kg i.p.): 47%
